According to ChEMBL document CHEMBL1135150, “Vitamin D(3): synthesis of seco C-9,11,21-trisnor-17-methyl-1 alpha, 25-dihydroxyvitamin D(3) analogues” (2002):

Experiments:
HL-60 [1] = assay: In vitro biological evaluation was determined on HL60 cell line, results expressed as percentage activity at 50% dose response; type: functional, Homo sapiens
Mus musculus = assay: In vivo calcemic effects was tested in vitamin D-replete normal NMRI mice by daily intraperitoneal injections of 1-alpha,25(OH)2D3; type: functional
[2] = biological target: T1, Vitamin D3 receptor (Sus scrofa domesticus) (UniProt Q7M3G7); assay: The affinity to the pig intestinal mucosa vitamin D receptor was evaluated in vitro, results expressed as percentage activity at 50% dose response; type: tissue-based
T1 sequence (whole entry): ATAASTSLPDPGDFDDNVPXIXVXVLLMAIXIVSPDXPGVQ

MCF7 = assay: In vitro biological evaluation was determined on MCF-7 cell line, results expressed as percentage activity at 50% dose response; type: functional, Homo sapiens
Keratinocyte = assay: In vitro biological evaluation was determined on Keratinocytes, results expressed as percentage activity at 50% dose response; type: functional, Homo sapiens
MG-63 = assay: In vitro biological evaluation was determined on MG-63 cell line, results expressed as percentage activity at 50% dose response; type: functional, Homo sapiens
HL-60 [3] = assay: In vitro biological evaluation was determined on HL60, results expressed as percentage activity at 50% dose response; type: functional, Homo sapiens

Row | Activity [2] [%] | SMILES | Activity (HL-60 [1]) [%] | Activity (Mus musculus) [%] | Activity (MCF7) [%] | Activity (Keratinocyte) [%] | Activity (MG-63) [%] | Activity (HL-60 [3]) [%]
1 | 30 | C=C1C(=CC=C[C@@H]2CC[C@](C)(CCCCC(C)(C)O)C2(C)C)C[C@@H](O)C[C@@H]1O | 40 | <1 | 80 | 40 | 60 | –
2 | 80 | C=C1C(=CC=C[C@@H]2CC[C@](C)(CCCCC(O)(CC)CC)C2(C)C)C[C@@H](O)C[C@@H]1O | 100 | 5 | 250 | 90 | 200 | –
3 | 80 | C=C1C(=CC=C[C@@H]2CC[C@](C)(/C=C\CCC(O)(C(F)(F)F)C(F)(F)F)C2(C)C)C[C@@H](O)C[C@@H]1O | 50 | 13 | 375 | 300 | 50 | –
4 | 70 | CC(C)(O)C(F)(F)C/C=C\[C@@]1(C)CC[C@@H](/C=C/C=C2C[C@@H](O)C[C@H](O)C2)C1(C)C | 20 | 0.5 | 10 | 60 | – | –
5 | 75 | CCC(O)(CC)CCCC[C@@]1(C)CC[C@@H](/C=C/C=C2C[C@@H](O)C[C@H](O)C2)C1(C)C | 85 | 0.25 | 100 | 40 | 80 | –
6 | 100 | C=C1/C(=C\C=C2/CCC[C@]3(C)[C@@H]([C@H](C)CCCC(C)(C)O)CC[C@@H]23)C[C@@H](O)C[C@@H]1O [CALCITRIOL] | 100 | 100 | 100 | 100 | 100 | –
7 | 60 | CC(C)(O)C#CCC[C@@]1(C)CC[C@@H](/C=C/C=C2C[C@@H](O)C[C@H](O)C2)C1(C)C | 60 | 0.25 | 70 | 85 | – | –
8 | 40 | CC(C)(O)CCCC[C@@]1(C)CC[C@@H](/C=C/C=C2C[C@@H](O)C[C@H](O)C2)C1(C)C | 9 | 0.25 | 30 | 10 | 40 | –
9 | 80 | C=C1C(=CC=C[C@@H]2CC[C@](C)(CCCCC(O)(C(F)(F)F)C(F)(F)F)C2(C)C)C[C@@H](O)C[C@@H]1O | 150 | 10 | 1250 | 750 | 200 | –
10 | 9 | C=C1/C(=C\C=C\[C@@H]2CC[C@](C)(CCC#CC(C)(C)O)C2(C)C)C[C@@H](O)C[C@@H]1O | 100 | 0.1 | 150 | 400 | 50 | –
11 | 100 | CC1(C)[C@H](/C=C/C=C2C[C@@H](O)C[C@H](O)C2)CC[C@]1(C)CCC#CC(O)(C(F)(F)F)C(F)(F)F | – | 1 | 2000 | 4500 | – | 300
12 | 40 | C=C1C(=CC=C[C@@H]2CC[C@](C)(/C=C\CC(F)(F)C(C)(C)O)C2(C)C)C[C@@H](O)C[C@@H]1O | 20 | <0.1 | 70 | 200 | 12 | –
13 | 75 | C=C1C(=CC=C[C@@H]2CC[C@](C)(CCCC(F)(F)C(C)(C)O)C2(C)C)C[C@@H](O)C[C@@H]1O | 80 | 3 | 90 | 1350 | 50 | –
